Test results reported in paper PMC9852833, “Functional evaluation of cyclosporine metabolism by CYP3A4 variants and potential drug interactions” (Frontiers in Pharmacology, 2023).

Legend:
[1] = tested on: metabolism of CsA in rat liver microsomes (RLMs); assay: Inhibition of CsA metabolism in rat liver microsomes (RLMs); conditions: for Inhibitory rate on the metabolism of CsA: screen of 132 drugs, RLMs […], Tris-HCl, NADPH 1 mM, AM1 by UPLC-MS/MS; for Inhibitory effect on the metabolism of CsA (in words): RLMs, comparison of five antihypertension drugs (Figure 2C)
Protocol: (§1) The concentrations of CsA, its main metabolite AM1, and diazepam (IS) were detected by UPLC–MS/MS equipped with a triple quadrupole and electrospray ionization (ESI) source. […] Briefly, the analytes were separated on a UPLC BEH C18 column (2.1 mm × 50 mm, 1.7 μm particle size). […] Solvent A (0.1% formic acid) and solvent B (acetonitrile) were applied as the mobile phase, with a gradient elution at a flow rate of 0.4 ml/min and an injection volume of 4 μl.
(§2) Reduced nicotinamide adenine dinucleotide phosphate (NADPH) (1 mmol/L) was added into the mixture after preincubation at 37°C for 5 min to initiate the reaction. The mixture was incubated for another 40 min, then cooled at −80°C to suspend the reaction. Then, 400 μl of acetonitrile and 20 μl of diazepam (200 ng/ml) were added to the frozen mixture. The mixtures were vortexed for 2 min and centrifuged at 13,000 rpm for 10 min. Finally, 4 μl of the mixture was injected for UPLC-MS/MS analysis.
(§3) A 200 μl system was incubated with either RLMs or HLMs (at a concentration of 0.15 mg/ml) containing drugs, CsA, RLMs or HLMs (all at a concentration of 0.15 mg/ml), Tris-HCl buffer, and 10 μl of NADPH (1 mM). […] The rest of the operation was the same as already described.

[2] = Pharmacokinetics of CsA and AM1 in rats with or without nimodipine or nisoldipine; assay type: in vivo, Sprague–Dawley rats; conditions: male SD rats, plasma, UPLC-MS/MS, mean ± SD n = 6
Protocol: Sprague–Dawley male rats weighing 200–250 g were purchased from Shanghai Laboratory Animal Center (SLAC). After 2 weeks of laboratory adaptation, the rats were randomly divided into three groups with six rats in each group. […] All drugs were orally administered. […] The collected blood samples were centrifuged to obtain the plasma. Then, 150 μl of acetonitrile and 20 μl of diazepam (IS; 100 ng/ml) were added to 50 μl of plasma, mixed and vortexed for 2 min, centrifuged for 10 min, and 4 μl of the supernatant was used for UPLC-MS/MS injection analysis.
The pharmacokinetic parameters were evaluated by DAS 3.0.

[3] = tested on: metabolism of CsA in human liver microsomes (HLMs); CYP3A4; conditions: comparison of five antihypertension drugs (Figure 2D)
Protocol: as §1, §2, §3

[4] = Inhibition of CsA metabolism in rat liver microsomes (RLMs); conditions: SD
Protocol: as §1, §2, §3

[5] = metabolite after CsA 40 mg/kg oral + nimodipine 24 mg/kg oral
[6] = metabolite after CsA 40 mg/kg oral + nisoldipine 2 mg/kg oral
[7] = metabolite after CsA 40 mg/kg oral alone

## C[C@@H](c1ncncc1F)[C@](O)(Cn1cncn1)c1ccc(F)cc1F [voriconazole, Voriconazole]
[1]
  Inhibitory rate on the metabolism of CsA: greater than 80%

## COCCOC(=O)C1=C(C)NC(C)=C(C(=O)OC(C)C)C1c1cccc([N+](=O)[O-])c1 (stereo not shown) [nimodipine, Nimodipine]
[1]
  Inhibitory effect on the metabolism of CsA (in words): almost completely blocked the metabolism of CsA

## C=CC[C@@H]1/C=C(\C)C[C@H](C)C[C@H](OC)[C@H]2O[C@@](O)(C(=O)C(=O)N3CCCC[C@H]3C(=O)O[C@H](/C(C)=C/[C@@H]3CC[C@@H](O)[C@H](OC)C3)[C@H](C)[C@@H](O)CC1=O)[C@H](C)C[C@@H]2OC [tacrolimus, Tacrolimus]
[1]
  Inhibitory rate on the metabolism of CsA: greater than 80%

## Cc1cccc(C)c1OCC(=O)N[C@@H](Cc1ccccc1)[C@@H](O)C[C@H](Cc1ccccc1)NC(=O)[C@H](C(C)C)N1CCCNC1=O [lopinavir, Lopinavir]
[1]
  Inhibitory rate on the metabolism of CsA: greater than 80%

## OCCOc1ccc(/C(=C(/CCCl)c2ccccc2)c2ccccc2)cc1 [ospemifene]
[1]
  Inhibitory rate on the metabolism of CsA: greater than 80%

## CO[C@H]1C[C@@H]2CC[C@@H](C)[C@@](O)(O2)C(=O)C(=O)N2CCCC[C@H]2C(=O)O[C@H]([C@H](C)C[C@@H]2CC[C@@H](OCCO)[C@H](OC)C2)CC(=O)[C@H](C)/C=C(\C)[C@@H](O)[C@@H](OC)C(=O)[C@H](C)C[C@H](C)/C=C/C=C/C=C/1C [everolimus, Everolimus]
[1]
  Inhibitory rate on the metabolism of CsA: greater than 80%

## CC[C@@H]1NC(=O)[C@H]([C@H](O)[C@H](C)C/C=C/CO)N(C)C(=O)[C@H](C(C)C)N(C)C(=O)[C@H](CC(C)C)N(C)C(=O)[C@H](CC(C)C)N(C)C(=O)[C@@H](C)NC(=O)[C@H](C)NC(=O)[C@H](CC(C)C)N(C)C(=O)[C@H](C(C)C)NC(=O)[C@H](CC(C)C)N(C)C(=O)CN(C)C1=O [AM1, CsA M-17]
[2]; [5]
  AUC(0-t) of AM1: 3,291.60 ± 1,213.46 μg/L·h
  AUC(0-∞) of AM1: 3,504.89 ± 1,223.40 μg/L·h
  CLz/F of AM1: 207 ± 60 mL/min/kg
  Cmax of AM1: 192.68 ± 69.42 ng/mL
  Tmax of AM1: 7.00 ± 2.68 h
  Vz/F of AM1: 198.16 ± 99.97 L/kg
  t1/2z of AM1: 10.83 ± 3.52 h
[2]; [6]
  AUC(0-t) of AM1: 1,548.46 ± 482.43 μg/L·h
  AUC(0-∞) of AM1: 2,128.73 ± 887.82 μg/L·h
  CLz/F of AM1: 354.3 ± 122 mL/min/kg
  Cmax of AM1: 110.32 ± 19.52 ng/mL
  Tmax of AM1: 6.17 ± 1.60 h
  Vz/F of AM1: 494.23 ± 201.15 L/kg
  t1/2z of AM1: 19.58 ± 13.45 h
[2]; [7]
  AUC(0-t) of AM1: 2,275.37 ± 620.96 μg/L·h
  AUC(0-∞) of AM1: 2,542.74 ± 779.21 μg/L·h
  CLz/F of AM1: 283.8 ± 88.5 mL/min/kg
  Cmax of AM1: 141.21 ± 30.64 ng/mL
  Tmax of AM1: 6.83 ± 1.33 h
  Vz/F of AM1: 264.78 ± 145.01 L/kg
  t1/2z of AM1: 12.10 ± 9.00 h

## COC(=O)C1=C(C)NC(C)=C(C(=O)OCC(C)C)C1c1ccccc1[N+](=O)[O-] (stereo not shown) [nisoldipine, Nisoldipine]
[3]
  Inhibitory effect on the metabolism of CsA (in words): almost completely blocked the metabolism of CsA
[4]
  IC50: 16.2 ± 0.78 µM
[1]
  Inhibitory effect on the metabolism of CsA (in words): almost completely blocked the metabolism of CsA
  Inhibitory rate on the metabolism of CsA: greater than 80%

## N#CC1(c2ccc(NC(=O)c3cccnc3NCc3ccncc3)cc2)CCCC1 [apatinib, Apatinib]
[1]
  Inhibitory rate on the metabolism of CsA: greater than 80%

## C[C@@H](c1nc(-c2ccc(C#N)cc2)cs1)[C@](O)(Cn1cncn1)c1cc(F)ccc1F [isavuconazole, Isavuconazole]
[1]
  Inhibitory rate on the metabolism of CsA: greater than 80%

## CCOC(=O)C1=C(C)NC(C)=C(C(=O)OC)C1c1cccc(Cl)c1Cl (stereo not shown) [felodipine]
[1]
  Inhibitory effect on the metabolism of CsA (in words): almost completely blocked the metabolism of CsA
